Results published in US20110223131A1, “ANTIVIRAL COMPOUNDS” (Gilead Sciences, Inc., priority 2010, published 2011).
≈ marks a conversion by molar mass, not a printed value. Where “and” joins values, the source holds several entries; their conditions need not be identical. Equal entries are not always repeated. Where two headings read alike, the source gives them in different places.

Columns and labels:
[1] = test system: HIV-IIIb; conditions: MT-2 cells; as reported in WO 2010/011959; cited from earlier work
[2] = Oral bioavailability from crystalline suspension in dog (plasma PK, LC/MS/MS); type: in vivo, beagle dogs; conditions: for bioavailability: read-out: F (oral bioavailability)
Method: Oral Bioavailability-Determination of Oral Bioavailability of Integrase Inhibitors from Crystalline Suspension in Dog The in-life phase of these studies was carried out at SRI, Menlo Park, Calif. Both Compound (Ia) and Comparator Compound were formulated in 0.5% HPMC […], 0.2% Tween 20, 0.9% benzyl alcohol, and 98.4% water. Both were at 2.00 mg/mL for oral dosing. Each dosing group consisted of 3 male, beagle dogs. At dosing, the animals weighed an average of 10.9 kgs for Compound (Ia) and 10.5 kgs for Comparator Compound. The animals were fasted overnight prior to dose administration and up to 4 hr after dosing. The dogs were pre-treated with pentagastrin at 30 minutes prior to dosing by IM injection. The Compound (Ia) suspension was administered by oral gavage at 1.5 mL/kg to deliver a total dose of 3 mg/kg, while the Comparator Compound suspension was administered by oral gavage at 2 mL/kg for a dose of 4 mg/kg. Serial venous blood samples (approximately 0.8-1.0 mL each) were taken at specified time points (range t=0 to t=24 hr) after dosing from each animal. The blood samples were collected into VacutainerTM tubes containing EDTA-K3 as the anti-coagulant and were immediately placed on wet ice pending centrifugation for plasma. Dosing solutions were analyzed using un-used portions of the dosing solutions, and aliquots of approximately 1 mL of each dosing solution were saved. The concentration of compound in the dosing solution was measured with an HPLC-UV method. Comparator Compound (nominal dose of 4 mg/kg) was dosed at 9387 nmoles/kg, while Compound (Ia) (nominal dose of 3 mg/kg) was dosed at 6563-6566 nmoles/kg. An LC/MS/MS method was used to measure the concentration of test compounds in plasma. Non-compartmental pharmacokinetic analysis was performed on the plasma concentration-time data. The bioanalytical method consisted of treating 100 μL of each plasma sample with 200 μL of acetonitrile (ACN) and 200 μL acetonitrile (ACN) containing internal standard. After protein precipitation and centrifugation, 100 μL of the supernatant was transferred to a clean 96-well plate and mixed with 100 μL of water. An aliquot of 10 μL of the above solution was injected onto an API-4000 triple quadrupole LC/MS/MS system. A Hypersil Gold (#25005-053030, Thermo Electron Corporation) column was used. Mobile phase A contained water with 0.1% formic acid and 1% IPA. Mobile phase B contained acetonitrile with 0.1% formic acid and 1% IPA.

[3] = Aqueous solubility in buffers, HPLC-UV; type: physicochemical; conditions: aqueous buffer, thermodynamic from solid, 24 to 48 hours
Method: Excess solid material was added to aqueous buffers at pH 2 and pH 7 in glass vials to form suspensions. The suspension was stirred on a stirrer plate with a magnetic stirrer bar at room temperature for periods of 24 to 48 hours. The suspension was filtered through a 0.22 micron PVDF syringe filters. The clear filtrate was diluted in acetonitrile and analyzed by HPLC-UV against an external standard for the compound concentration.

[4] = Cytotoxicity (CC50) in MT-2 cells; type: cell-based; conditions: human
[5] = test system: HIV-IIIb; assay: Antiviral assay in MT-2 / MT-4 cells infected with HIV-IIIb (CellTiter-Glo readout); type: cell-based; conditions: Human immunodeficiency virus 1, MT4, 120 h, 5 days, cell line (MT-2 or MT-4) not printed in Table 1
Method: For the antiviral assay utilizing MT-2 cells, 50 μL of 2× test concentration of 5-fold serially diluted compound in culture medium with 10% FBS was added to each well of a 96-well plate (9 concentrations) in triplicate. MT-2 cells were infected with HIV-IIIb at a multiplicity of infection (m.o.i) of 0.01 for 3 hours. Fifty microliters of infected cell suspension in culture medium with 10% FBS (˜1.5×10^4 cells) was then added to each well containing 50 μL of diluted compound. The plates were then incubated at 37° C. for 5 days. For the antiviral assay utilizing MT-4 cells, 20 μL of 2× test concentration of 5-fold serially diluted compound in culture medium with 10% FBS was added to each well of a 384-well plate (7 concentrations) in triplicate. MT-4 cells were next mixed with HIV-IIIb at an m.o.i. of 0.1 and 20 μL of virus/cell mixture (˜2000 cells) was immediately added to each well containing 20 μL of diluted compound. The plates were then incubated at 37° C. for 5 days. After 5 days of incubation, 100 μL of CellTiter-Glo™ Reagent (catalog #G7571, Promega Biosciences, Inc., Madison, Wis.) was added to each well containing MT-2 cells and 40 μl to each well containing MT-4 cells. Cell lysis was carried out by incubating at room temperature for 10 min and then chemiluminescence was read.

[6] = Cytotoxicity (CC50) in MT-4 cells; type: cell-based; conditions: human
[7] = PO 4 mg/kg suspension, dog plasma, individual dogs, 4 mg/kg
[8] = male, beagle, dog, plasma, po, 4 mg/kg, PO 4 mg/kg suspension, dog plasma, individual dogs
[9] = PO 3 mg/kg suspension, dog plasma, individual dogs, 3 mg/kg
[10] = male, beagle, dog, plasma, po, 3 mg/kg, PO 3 mg/kg suspension, dog plasma, individual dogs
[11] = male, beagle, dog, plasma, po, 3 mg/kg, PO 3 mg/kg suspension, dog plasma, mean n = 3

CNC(=O)c1c(O)c2ncc(Cc3ccc(F)cc3)c3c2n(c1=O)C[C@H](C(=O)NC)O3 [Comparator Compound, reference compound]
EC50 [1]: 0.0068 µM
AUClast [2, 7]: 0.385 µM·h and 0.0898 µM·h and 0.0552 µM·h
Cmax [2, 7]: 58.5 nM and 16.3 nM and 11.3 nM
Tmax [2, 7]: 2.00 h
F (oral bioavailability) ([2]; PO 4 mg/kg suspension, dog, individual dogs, 4 mg/kg): 0.5% and 0.1% (2×)
CL ([2]; listed in table of PO 4 mg/kg suspension, dog plasma, individual dogs, 4 mg/kg): 0.13 L/h/kg and 0.14 L/h/kg and 0.19 L/h/kg
CL ([2]; listed in table of PO 4 mg/kg suspension, dog plasma, mean n = 3): 0.15 L/h/kg
AUC(0-inf) ([2]; male, beagle, dog, plasma, po, 4 mg/kg, PO 4 mg/kg suspension, dog plasma, Mean column (only one dog calculable)): 0.427 µM·h
AUC(0-inf) [2, 8]: 0.427 µM·h
half-life [2, 8]: 2.97 h
Tmax ([2]; male, beagle, dog, plasma, po, 4 mg/kg, PO 4 mg/kg suspension, dog plasma, individual dogs, read-out: Tmax): 4 h
Cmax ([2]; male, beagle, dog, plasma, po, 4 mg/kg, PO 4 mg/kg suspension, dog plasma, mean n = 3): 28.7 ± 25.9 nM
AUC(0-t) ([2]; male, beagle, dog, plasma, po, 4 mg/kg, PO 4 mg/kg suspension, dog plasma, mean n = 3, read-out: AUClast (AUC0-t)): 0.177 ± 0.181 µM·h
Tmax ([2]; male, beagle, dog, plasma, po, 4 mg/kg, PO 4 mg/kg suspension, dog plasma, mean n = 3, read-out: Tmax): 2.67 h
bioavailability ([2]; male, beagle, dog, plasma, po, 4 mg/kg, PO 4 mg/kg suspension, pentagastrin pretreated dogs, mean n = 3): 0.2%
solubility ([3]; pH 2.2, room temperature): 1 µg/mL (≈ 2.35 µM)
solubility ([3]; pH 7.3, room temperature): 1 µg/mL (≈ 2.35 µM)

CNC(=O)c1c(O)c2ncc(Cc3ccc(F)cc3)c3c2n(c1=O)C[C@](C)(c1nnc(C)o1)O3 [Compound (Ia)]
CC50 at 5 days [4]: 5.3 µM
EC50 [5]: 0.0034 µM
AUCinf [2, 9]: 14.413 µM·h and 21.913 µM·h
AUClast [2, 9]: 14.199 µM·h and 21.762 µM·h
Cmax [2, 9]: 2500 nM and 4240 nM
Tmax [2, 9]: 2.00 h
t1/2 [2, 9]: 4.88 h and 3.64 h
F (oral bioavailability) ([2]; PO 3 mg/kg suspension, dog, individual dogs, 3 mg/kg): 35.0% and 53.6%
F (oral bioavailability) ([2]; PO 3 mg/kg suspension, pentagastrin pretreated dogs, mean n = 3): 45.2%
CL ([2]; listed in table of PO 3 mg/kg suspension, dog plasma, individual dogs, 3 mg/kg): 0.17 L/hr/kg (2×) and 0.15 L/hr/kg
CL ([2]; listed in table of PO 3 mg/kg suspension, dog plasma, mean n = 3): 0.16 L/h/kg
AUC(0-inf) [2, 10]: 19.3 µM·h
Cmax [2, 10]: 3160 nM
half-life [2, 10]: 4.16 h
AUC(0-t) ([2]; male, beagle, dog, plasma, po, 3 mg/kg, PO 3 mg/kg suspension, dog plasma, individual dogs, read-out: AUClast): 19.1 µM·h
Tmax ([2]; male, beagle, dog, plasma, po, 3 mg/kg, PO 3 mg/kg suspension, dog plasma, individual dogs, read-out: Tmax): 1 h
AUC(0-inf) [2, 11]: 18.6 µM·h
Cmax [2, 11]: 3300 ± 878 nM
half-life [2, 11]: 4.22 h
AUC(0-t) ([2]; male, beagle, dog, plasma, po, 3 mg/kg, PO 3 mg/kg suspension, dog plasma, mean n = 3, read-out: AUClast): 18.3 µM·h
Tmax ([2]; male, beagle, dog, plasma, po, 3 mg/kg, PO 3 mg/kg suspension, dog plasma, mean n = 3, read-out: Tmax): ~1.33 h
bioavailability ([2]; male, beagle, dog, plasma, po, 3 mg/kg, PO 3 mg/kg suspension, dog, individual dogs): 47%
bioavailability ([2]; male, beagle, dog, plasma, po, 3 mg/kg, PO 3 mg/kg suspension, pentagastrin pretreated dogs, mean n = 3): 45%
CC50 at 5 days [6]: 42 µM
solubility ([3]; pH 2.2, room temperature): 29.4 µg/mL (≈ 63.2 µM)
solubility ([3]; pH 7.3, room temperature): 31.6 µg/mL (≈ 67.9 µM)
